This is an account of results in patent US20240229097A1, “SYSTEM, METHOD, DEVICE AND MANUFACTURING METHOD THEREOF FOR DETECTING CELLULAR MECHANICAL FORCE” (Ruixin (Fuzhou) Technology Co., Ltd., priority 2021, published 2024).

Structures are written as SMILES.

What all share (assay type): cell-based
The subject of experiment [1] is non-small cell lung cancer cells A549. Kind of experiment: MTT assay of cell viability of A549 cells treated with 5FU. The text has this: (§1) Specifically, this embodiment cultures non-small cell lung cancer cells A549 on multiple device for detecting cellular mechanical force, treats them with different doses of the cell proliferation inhibitor 5-fluorouracil (5-FU), and monitors cellular mechanical forces at different time points using the system for detecting cellular mechanical force or the method described in the tenth to twelfth embodiments or the fourteenth embodiment. Cell proliferation and cytotoxicity are monitored at different time points using the CCK-8 assay kit, with cell viability measured by the MTT assay serving as a control, generating the data for FIGS. 16,b and c.
(Formazan colour is commonly taken as a measure of viable cells.)

The test system is the same in experiment [2]. Briefly: Cell viability reflected by cellular mechanical force (micropillar light reflection device), A549 cells treated with 5FU.
From the text: This embodiment specifically provides using the cellular mechanical force information obtained from any of the system for detecting cellular mechanical force described in the tenth to twelfth embodiments or the cellular mechanical force detection method described in the fourteenth embodiment to monitor cell viability.
as §1

The test system of experiment [3] is breast cancer cells MCF-7 multicellular aggregates. Briefly: 5-Fu drug sensitivity test on tumor cell multicellular aggregates on the cellular mechanical force detection device. As to conditions: MCF-7 aggregates, 200 μM 5-Fu, cultured for one day, FIG. 18. Here is the method:
More specifically, this embodiment provides a method for culturing a tumor cell multicellular aggregate on the device for detecting cellular mechanical force for drug sensitivity test, including the steps:
S1, Generation of tumor cell multicellular aggregates: FN 50 μg/mL is applied to the top of the micropillar of the device for detecting cellular mechanical force and sterilized with UV for 30 minutes; breast cancer cells MCF-7 (approximately 1×10^5 to 9×10^5 cells) are seeded on the top surface of the micropillars (number of micropillars is not limited) of the device for detecting cellular mechanical force, which is then immersed in 3dGRO™ Spheroid Medium (S3077) for more than 3 days to induce the formation of tumor cell multicellular aggregates.
S2, Applying the generated tumor cell multicellular aggregates to a 5-Fu drug sensitivity test: 200 μM of 5-Fu is added to the tumor cell multicellular aggregates and cultured for one day; in the test, before the addition of 5-Fu and one day of culture after the addition of 5-Fu on the device for detecting cellular mechanical force (with tumor cell multicellular aggregates, including the culture medium), light reflection signals are captured by the light signal detection device (CCD sensor) and cellular mechanical force distribution images are obtained using the light signal analysis device (ImageJ), as shown in FIG. 18. […]

Setting [4] is: different doses of 5FU, FIGS. 16,b and c.

For `O=c1[nH]cc(F)c(=O)[nH]1` [5FU, 5-fluorouracil], the “cell viability measured by the conventional MTT assay” value in experiment [1] (setting [4]) is reported as “dose-dependent decline”. The “change in cell viability by MTT assay” value in experiment [1] (within 12 hours of 5FU treatment, FIG. 16,c) is given as “no significant change”. Also, the “time at which a significant decrease trend of cellular mechanical force is observed” value in experiment [2] (0.5 μM treatment dose) came to 6 h. In addition, the “time at which a significant decrease trend of cellular mechanical force is observed” value in experiment [2] (1 μM treatment dose) stood at 3 h. The “cellular viability reflected by mechanical force compared to the control group (DMSO)” value in experiment [2] (different doses of 5FU for 24 hours, relative to MTT assay, FIG. 16,b) is on record as “greater reduction”. The “cell viability reflected by cellular mechanical forces” value in experiment [2] (setting [4]) is “dose-dependent decline”. In experiment [3], the “cell viability of tumor cell multicellular aggregates” value is on record as “reduced” and the “reflection signals of tumor cell multicellular aggregates” value is “noticeably weaken”.
